According to US7915405B2, “2,4-disubstituted-5-aminocarbonyl-1,3-thiazole derivatives for therapeutic agent of antiinflammatory disease, method thereof for preparation, therapeutic agent for antiinflammatory disease induced by SPC activity containing the same” (Korea Research Institute of Chemical Technology, priority 2008, dated 2011):
Like-named read-outs stand apart in the source and are kept apart here.

Assays:
[1] = test system: TPA-induced inflammation model; assay: Control of inflammatory reaction in mouse TPA-induced inflammation model (ear weight and MPO activity); assay type: in vivo; details: ICR mice; for Inhibition (%) of inflammatory reaction (ear edema, ear weight) / Inhibition (%) (MPO inhibition): 0.3% in acetone, 20 μl on the ear at 1 hour and 6 hours after TPA; for Inhibition (%) of inflammatory reaction (ear edema, ear weight): measured at 24 hours; for inhibition of TPA-induced inflammatory reactions, ear edema and MPO activity (in words): 0.3% topical, compared with hydrocortisone; for Inhibition (%) (MPO inhibition): value in brackets, MPO activity of ear at 24 hours
Description: In order to examine an inhibitory effect on inflammatory reactions, the following test was carried out using tetradecanoyl phorbol acetate (hereinafter referred to as “TPA”)-induced inflammation model.
The TPA-induced inflammation model was a test method which has been widely used to test inflammatory reaction mechanisms and the effect of inhibitory substances [De Young L M et al., Agents and Actions, 1989, 26, 335-341]. When TPA which is a substance causing an inflammatory reaction is applied to the ear of a test subject, erythema and edema occur. Such inflammatory reactions are measurable through the increase in the activity of myeloperoxidase (MPO) which is essential for bacterial invasion into white blood cells.
Forty 6-week-old ICR mice were prepared, and 20 μl of a TPA solution (Sigma Aldrich Korea) obtained by dissolving TPA in acetone at a concentration of 125 μg/ml was applied to the left ear of each animal. At 1 hour after the application of TPA, 20 μl of each of acetone, the compounds of Examples dissolved in acetone at a concentration of 0.3%, and hydrocortisone (Sigma Aldrich Korea) dissolved in acetone at a concentration of 0.3% was applied to the TPA-applied site, and at 6 hours after the application of TPA, it was applied again to the same site in the same amount (20 μl). At 24 hours after the application of TPA, the mice were sacrificed by cervical dislocation, and the left ear was collected in a given width and measured for weight and MPO activity. Inhibition % of inflammatory reactions was calculated according to the following equation 3, and the results are shown in Table 4 below. Inhibition %=(group treated with TPA alone−group treated with test drug)/(group treated with TPA alone−group not treated with TPA)×100 [Equation 3]

NIH 3T3 cells = assay: Control of cellular division and proliferation induced by SPC ([3H]-thimidine incorporation); assay type: cell-based; details: for IC50: compound 0.001-1 μM 30 minutes, then SPC 7 μM, 24 hours, read-out: antagonistic effect on SPC IC50; for inhibition of cellular division and proliferation induced by SPC (in words): SPC 7 μM
Description: Treatment of cells with sphingosylphosphorylcholine (SPC) can induce excessive cellular division and proliferation, thus causing pathological skin conditions [Desai, Biochem. Biophys. […] Accordingly, the compounds prepared in the above Examples were tested for an effect on cellular division and proliferation induced by SPC.
First, 1×10^5 (usually 1×10^4˜10^5) NIH 3T3 cells (American Type Culture Collection, Manassas, Va., USA) were dispensed and cultured on a culture plate, and then cultured in RPMI medium containing no fetal bovine serum for 24 hours to achieve serum starvation. The cells were treated with the compounds prepared in the above Examples, and FTY720, a sphingosine-1-phosphate (S1P) agonist, at concentrations of 0.001 μM, 0.01 μM, 0.1 μM and 1 μM, and were incubated for 30 minutes. Then, SPC (Biomol, Plymouth Meeting, Pa., USA) was added thereto at a concentration of 7 μM, and the cells were incubated at 37° C. for 24 hours. […] Proliferation %=(group treated with test drug−group not treated with SPC)/(group treated with SPC alone−group not treated with SPC)×100 [Equation 1]

[2] = Mus musculus, NIH3T3, serum starved

SMILES: CC(C)(C)C(=O)Nc1nc(N2CCCCC2)sc1C(=O)N1CCOCC1 [Example 1-1]
- Inhibition (%) of inflammatory reaction (ear edema, ear weight) [1]: 21%
- IC50 (NIH 3T3 cells; [2]): 932 nM

SMILES: CC(C)(C)C(=O)Nc1nc(N2CCN(c3ccccc3)CC2)sc1C(=O)N1CCOCC1 [Example 1-5]
- Inhibition (%) of inflammatory reaction (ear edema, ear weight) [1]: 30%
- IC50 (NIH 3T3 cells; serum starved): 189 nM

SMILES: COc1ccccc1N1CCN(c2nc(NC(=O)C(C)(C)C)c(C(=O)N3CCOCC3)s2)CC1 [Example 1-7]
- IC50 (NIH 3T3 cells; serum starved): 271 nM

SMILES: CC(C)(C)C(=O)Nc1nc(N2CCN(c3ccc(Cl)cc3)CC2)sc1C(=O)N1CCOCC1 [Example 1-8]
- IC50 (NIH 3T3 cells; serum starved): 730 nM

SMILES: CC(C)(C)C(=O)Nc1nc(NCc2ccccc2)sc1C(=O)N1CCOCC1 [Example 1-10]
- Inhibition (%) of inflammatory reaction (ear edema, ear weight) [1]: 68%
- IC50 (NIH 3T3 cells; serum starved): 68 nM

SMILES: COc1ccc(CNc2nc(NC(=O)C(C)(C)C)c(C(=O)N3CCOCC3)s2)cc1 [Example 1-11]
- Inhibition (%) of inflammatory reaction (ear edema, ear weight) [1]: 49%
- IC50 (NIH 3T3 cells; serum starved): 93.7 nM

SMILES: CC(C)(C)C(=O)Nc1nc(NCCN2CCCCC2)sc1C(=O)N1CCOCC1 [Example 1-12, N-{5-(morpholine-4-carbonyl)-2-[2-(piperidin-1-yl)ethylamino]thiazol-4-yl}pivalamide]
- Inhibition (%) of inflammatory reaction (ear edema, ear weight) [1]: 86%
- inhibition of TPA-induced inflammatory reactions, ear edema and MPO activity (in words) [1]: significantly inhibited
- Inhibition (%) (MPO inhibition) [1]: 80%
- IC50 (NIH 3T3 cells; [2]): 5.81 nM
- inhibition of cellular division and proliferation induced by SPC (in words) (NIH 3T3 cells): dose-dependently inhibited

SMILES: CC(C)(C)C(=O)Nc1nc(NCCN2CCCC2)sc1C(=O)N1CCOCC1 [Example 1-13]
- IC50 (NIH 3T3 cells; serum starved): 12.7 nM

SMILES: CC(C)(C)C(=O)Nc1nc(N2CCC(N3CCOCC3)CC2)sc1C(=O)N1CCOCC1 [Example 1-14]
- Inhibition (%) of inflammatory reaction (ear edema, ear weight) [1]: 71%
- IC50 (NIH 3T3 cells; serum starved): 9.3 nM

SMILES: CC(C)(C)C(=O)Nc1nc(N2CCC(N3CCCC3)CC2)sc1C(=O)N1CCOCC1 [Example 1-15]
- IC50 (NIH 3T3 cells; serum starved): 20.7 nM

SMILES: CC(C)(C)C(=O)Nc1nc(N2CCC(N3CCCCC3)CC2)sc1C(=O)N1CCOCC1 [Example 1-16]
- IC50 (NIH 3T3 cells; serum starved): 103 nM

SMILES: CCCCC(=O)Nc1nc(NCc2ccccc2)sc1C(=O)N1CCOCC1 [Example 1-19]
- IC50 (NIH 3T3 cells; serum starved): 79 nM

SMILES: CCCCC(=O)Nc1nc(NCCN2CCCCC2)sc1C(=O)N1CCOCC1 [Example 1-20]
- Inhibition (%) of inflammatory reaction (ear edema, ear weight) [1]: 62%
- IC50 (NIH 3T3 cells; serum starved): 7.5 nM

SMILES: CCCCC(=O)Nc1nc(N2CCC(N3CCOCC3)CC2)sc1C(=O)N1CCOCC1 [Example 1-21]
- Inhibition (%) of inflammatory reaction (ear edema, ear weight) [1]: 52%
- IC50 (NIH 3T3 cells; serum starved): 57 nM

SMILES: CCCCC(=O)Nc1nc(N2CCC(N3CCCC3)CC2)sc1C(=O)N1CCOCC1 [Example 1-22]
- Inhibition (%) of inflammatory reaction (ear edema, ear weight) [1]: 53%
- Inhibition (%) (MPO inhibition) [1]: 48%
- IC50 (NIH 3T3 cells; serum starved): 96 nM

SMILES: COc1ccccc1N1CCN(c2nc(NC(C)=O)c(C(=O)N3CCOCC3)s2)CC1 [Example 1-23]
- IC50 (NIH 3T3 cells; serum starved): 850 nM

SMILES: COc1ccccc1N1CCN(c2nc(NC(=O)C3CCCCC3)c(C(=O)N3CCOCC3)s2)CC1 [Example 1-24]
- IC50 (NIH 3T3 cells; serum starved): 910 nM

SMILES: COc1ccccc1N1CCN(c2nc(NC(=O)C3CC3)c(C(=O)N3CCOCC3)s2)CC1 [Example 1-25]
- IC50 (NIH 3T3 cells; serum starved): 67 nM

SMILES: CC(C)(C)C(=O)Nc1nc(NCC2CC2)sc1C(=O)N1CCCCC1 [Example 1-27]
- IC50 (NIH 3T3 cells; serum starved): 308 nM

SMILES: CC(C)(C)C(=O)Nc1nc(NCC2CCCCC2)sc1C(=O)N1CCCCC1 [Example 1-28]
- Inhibition (%) of inflammatory reaction (ear edema, ear weight) [1]: 43%
- IC50 (NIH 3T3 cells; serum starved): 716 nM

SMILES: CC(C)(C)C(=O)Nc1nc(NCc2ccccc2)sc1C(=O)N1CCCCC1 [Example 1-29, N-[2-(benzylamino)-5-(piperidine-1-carbonyl)thiazol-4-yl]pivalamide]
- Inhibition (%) of inflammatory reaction (ear edema, ear weight) [1]: 87%
- inhibition of TPA-induced inflammatory reactions, ear edema and MPO activity (in words) [1]: significantly inhibited
- Inhibition (%) (MPO inhibition) [1]: 83%
- IC50 (NIH 3T3 cells; [2]): 6.12 nM
- inhibition of cellular division and proliferation induced by SPC (in words) (NIH 3T3 cells): dose-dependently inhibited

SMILES: CC(C)(C)C(=O)Nc1nc(NCCN2CCCCC2)sc1C(=O)N1CCCCC1 [Example 1-30]
- Inhibition (%) of inflammatory reaction (ear edema, ear weight) [1]: 59%
- IC50 (NIH 3T3 cells; serum starved): 878 nM

SMILES: Cc1ccccc1N1CCN(c2nc(NC(=O)C(C)(C)C)c(C(=O)N3CCCCC3)s2)CC1 [Example 1-32]
- Inhibition (%) of inflammatory reaction (ear edema, ear weight) [1]: 43%
- IC50 (NIH 3T3 cells; serum starved): 45 nM

SMILES: CC(C)(C)C(=O)Nc1nc(N2CCN(c3ccccc3F)CC2)sc1C(=O)N1CCCCC1 [Example 1-33]
- Inhibition (%) of inflammatory reaction (ear edema, ear weight) [1]: 47%
- IC50 (NIH 3T3 cells; serum starved): 10.9 nM

SMILES: CC(C)(C)C(=O)Nc1nc(N2CCN(c3ccc(F)cc3)CC2)sc1C(=O)N1CCCCC1 [Example 1-34]
- IC50 (NIH 3T3 cells; serum starved): 57 nM

SMILES: CC(C)(C)C(=O)Nc1nc(N2CCN(c3ccccc3C#N)CC2)sc1C(=O)N1CCCCC1 [Example 1-35]
- IC50 (NIH 3T3 cells; serum starved): 94 nM

SMILES: CC(C)(C)C(=O)Nc1nc(N2CCN(c3ccccn3)CC2)sc1C(=O)N1CCCCC1 [Example 1-36]
- IC50 (NIH 3T3 cells; serum starved): 540 nM

SMILES: CC(C)(C)C(=O)Nc1nc(N2CCC(N3CCOCC3)CC2)sc1C(=O)N1CCCCC1 [Example 1-37]
- Inhibition (%) of inflammatory reaction (ear edema, ear weight) [1]: 44%
- Inhibition (%) (MPO inhibition) [1]: 47%
- IC50 (NIH 3T3 cells; serum starved): 89 nM

SMILES: CC(C)(C)C(=O)Nc1nc(N2CCC(N3CCCCC3)CC2)sc1C(=O)N1CCCCC1 [Example 1-38]
- IC50 (NIH 3T3 cells; serum starved): 176 nM

SMILES: CCCCC(=O)Nc1nc(NCc2ccccc2)sc1C(=O)N1CCCCC1 [Example 1-41]
- Inhibition (%) of inflammatory reaction (ear edema, ear weight) [1]: 51%
- IC50 (NIH 3T3 cells; serum starved): 9.8 nM

SMILES: CCCCC(=O)Nc1nc(NCCN2CCCCC2)sc1C(=O)N1CCCCC1 [Example 1-42]
- IC50 (NIH 3T3 cells; serum starved): 102 nM

SMILES: CCCCC(=O)Nc1nc(N2CCC(N3CCCC3)CC2)sc1C(=O)N1CCCCC1 [Example 1-44]
- Inhibition (%) of inflammatory reaction (ear edema, ear weight) [1]: 57%
- IC50 (NIH 3T3 cells; serum starved): 88.3 nM

SMILES: CC(C)(C)C(=O)Nc1nc(NCc2ccccc2)sc1C(=O)N1CCCC1 [Example 1-45]
- IC50 (NIH 3T3 cells; serum starved): 970 nM

SMILES: COc1ccccc1N1CCN(c2nc(NC(=O)C(C)(C)C)c(C(=O)N3CCCC3)s2)CC1 [Example 1-49]
- Inhibition (%) of inflammatory reaction (ear edema, ear weight) [1]: 38%
- IC50 (NIH 3T3 cells; serum starved): 178 nM

SMILES: CCCCCCCCc1ccc(CCC(N)(CO)CO)cc1 [FTY720, reference compound]
- inhibition of cellular division and proliferation induced by SPC (in words) (NIH 3T3 cells): did not inhibit

SMILES: C[C@]12CCC(=O)C=C1CC[C@@H]1[C@@H]2[C@@H](O)C[C@@]2(C)[C@H]1CC[C@]2(O)C(=O)CO [Hydrocortisone, hydrocortisone, reference compound]
- Inhibition (%) of inflammatory reaction (ear edema, ear weight) [1]: 85%
